Measurements as given in patent publication US12195559B2, “CDCA1-derived peptide and vaccine containing same” (ONCOTHERAPY SCIENCE, INC., priority 2018, dated 2025).
Entries after “also recorded” stand apart in the source; their conditions may differ.

Assays:
peptide-pulsed C1R-A01 [1] = assay: In vitro CTL induction, IFN-gamma ELISPOT assay; format: cell-based, human; conditions: CD8-positive T cells from HLA-A*01:01-positive donors stimulated with DCs pulsed with 20 micro-g/ml peptide, target C1R-A01 pulsed vs not pulsed
Procedure: C1R cells (C1R-A01) that constitutively express HLA-A*01:01 was used as cells for stimulating CTLs. A cDNA encoding the HLA-A*01:01 gene was amplified by PCR and introduced into an expression vector. C1R cells incorporated with HLA-A*01:01 gene expression vector were cultured for two weeks under drug selection with a medium containing G418 (Invitrogen). After diluting G418-resistant C1R cell suspension, the cells were seeded into a 96-well plate, and subjected to selective culture for another 30 days with a medium containing G418. The HLA-A*01:01 expression in C1R cells was verified by flow cytometric analysis.
Monocyte-derived dendritic cells (DCs) were used as the antigen-presenting cell to induce a cytotoxic T lymphocyte (CTL) specific to peptides presented on human leukocyte antigens (HLAs). DCs were prepared in vitro as already reported in the literature (Nakahara S et al., Cancer Res 2003, 63(14): 4112-8). Specifically, peripheral-blood mononuclear cells (PBMCs) collected from healthy volunteers (HLA-A*01:01-positive) with the Ficoll-Paque plus solution (Pharmacia) were seeded into plastic tissue culture dishes (Corning) to allow attachment of monocytes in PBMCs to the dishes. Then, the cells were cultured in the presence of 1000 IU/ml granulocyte macrophage colony-stimulating factor (R&D System) and 1000 IU/ml interleukin (IL)-4 (R&D System) for seven days. As medium, an AIM-V medium (Invitrogen) containing inactivated AB type serum (MP Biomedicals) was used (2% ABS/AIM-V medium). […] Peptide pulsing was performed in the AIM-V medium. These peptide-pulsed DCs were inactivated by X-ray irradiation (20 Gy), and mixed in a 1:20 ratio with autologous CD8-positive T cells obtained by using the CD8 Positive Isolation Kit (Invitrogen) (1.5×10^4 DCs and 3×10^5 CD8-positive T cells), and cultured in a 48-well plate (Corning). The volume of 2% ABS/AIM-V medium was 0.5 ml per 1 well, and IL-7 (R&D System) was added (final concentration: 10 ng/ml) to the well. Two days after the start of culture, IL-2 (Novartis) was added thereto (final concentration: 20 IU/ml). On 7th day of culture and 14th day of culture, CD8-positive T cells were further stimulated with peptide-pulsed DCs. The DCs were prepared before use by the same method as above. On 21st day or thereafter (after the third DC stimulation), IFN-gamma production of CD8-positive T cells against peptide-pulsed C1R-A01 was confirmed by enzyme-linked immunospot (ELISPOT) assay (Tanaka H et al., Br J Cancer 2001, 84(1): 94-9; Umano Y et al., Br J Cancer 2001, 84(8): 1052-7; Uchida N et al., Clin Cancer Res 2004, 10(24): 8577-86; Suda T et al., Cancer Sci 2006, 97(5): 411-9; Watanabe T et al., Cancer Sci 2005, 96(8): 498-506).
(§1) C1R-A01 pulsed with a peptide was prepared as target cells. The IFN-gamma ELISPOT assay and IFN-gamma ELISA were performed according to the procedures recommended by the assay kit manufacturer.

peptide-pulsed C1R-A01 [2] = assay: IFN-gamma ELISA of CTL clones established by limiting dilution; format: cell-based, human; conditions: CTL clones against peptide-pulsed vs non-pulsed target cells
Procedure: CTLs were propagated using a method similar to that reported by Riddell et al. (Walter E A et al., N Engl J Med 1995, 333(16): 1038-44; Riddell S R et al., Nat Med 1996, 2(2): 216-23). In a flask for tissue culture (FALCON), the CTLs were cultured in 5% ABS/AIM-V medium (culture solution volume: 25 ml/flask) with two types of human B lymphoblastoid cell lines (5×10^6 cells each) treated with mitomycin C and anti-CD3 antibody (BD biosciences, final concentration: 40 ng/ml). On the next day after the culturing was started, IL-2 was added to the culture (IL-2 final concentration: 120 IU/ml). On days 5, 8, and 11, the medium was changed to 5% ABS/AIM-V medium containing 60 IU/ml IL-2 (IL-2 final concentration: 30 IU/ml) (Tanaka H et al., Br J Cancer 2001, 84(1): 94-9; Umano Y et al., Br J Cancer 2001, 84(8): 1052-7; Uchida N et al., Clin Cancer Res 2004, 10(24): 8577-86; Suda T et al., Cancer Sci 2006, 97(5): 411-9; Watanabe T et al., Cancer Sci 2005, 96(8): 498-506).
After CTLs were induced in vitro, the CTLs were seeded at 1 cell/well or 10 cells/well in a 96-well round-bottomed microplate (Corning). The CTLs were cultured in 5% ABS/AIM-V medium (culture solution volume: […]) with two types of human B lymphoblastoid cell lines (1×10^4 cells each) treated with mitomycin C, anti-CD3 antibody (final concentration: 30 ng/ml), and IL-2 (final concentration: 125 IU/ml). After 10 days, […] of 5% ABS/AIM-V medium containing 500 IU/ml IL-2 was added to the culture.
as §1

[3] = tested on: COS7 cells expressing CDCA1 and HLA-A*01:01; assay: IFN-gamma production of CTL clone against target cells expressing CDCA1 and HLA-A*01:01; format: cell-based, African green monkey
Procedure: as §1
The cDNA encoding the CDCA1 or HLA-A*01:01 gene were amplified by PCR. Each PCR amplified product was incorporated into an expression vector. Using Lipofectamine 2000 (Invitrogen), either or both of the CDCA1 gene expression vector and the HLA-A*01:01 gene expression vector were introduced into COS7 cells, an HLA-negative cell line, according to the procedure recommended by the manufacturer. On the next day of the gene introduction, the COS7 cells were separated using Versene (Invitrogen) and used as target cells.

## ARQEVVEKY (a peptide derived from CDCA1) [SEQ ID NO: 35, CDCA1-derived 9mer peptide, start position 268]
peptide-pulsed C1R-A01 [1]; listed as CDCA1-A01-9-268
  Peptide-specific IFN-gamma production (CTL induction): Peptide-specific IFN-gamma production relative to the control well was observed; also recorded: able to induce CTLs that showed peptide-specific IFN-gamma production

## DSPEKLKNY (a peptide derived from CDCA1) [SEQ ID NO: 34, CDCA1-derived 9mer peptide, start position 246]
peptide-pulsed C1R-A01 [1]; listed as CDCA1-A01-9-246
  Peptide-specific IFN-gamma production (CTL induction): Peptide-specific IFN-gamma production relative to the control well was observed; also recorded: able to induce CTLs that showed peptide-specific IFN-gamma production

## ETYMEFLWQY (a peptide derived from CDCA1) [SEQ ID NO: 8, CDCA1-derived 10mer peptide, start position 136]
peptide-pulsed C1R-A01 [1]; listed as CDCA1-A01-10-136
  Peptide-specific IFN-gamma production (CTL induction): Peptide-specific IFN-gamma production relative to the control well was observed; also recorded: able to induce CTLs that showed peptide-specific IFN-gamma production
peptide-pulsed C1R-A01 [2]; listed as CDCA1-A01-10-136
  Peptide-specific IFN-gamma production of CTL clones: showed peptide-specific IFN-gamma production
[3]; COS7 cells expressing both CDCA1 and HLA-A*01:01
  IFN-gamma production of CTL clone against target cells: showed IFN-gamma production
[3]; COS7 cells expressing either CDCA1 or HLA-A*01:01, listed as CDCA1-A01-10-136
  IFN-gamma production of CTL clone against negative control cells: no significant IFN-gamma production was observed; also recorded: did not show significant IFN-gamma production

## FREACRETY (a peptide derived from CDCA1) [SEQ ID NO: 33, CDCA1-derived 9mer peptide, start position 130]
peptide-pulsed C1R-A01 [1]; listed as CDCA1-A01-9-130
  Peptide-specific IFN-gamma production (CTL induction): Peptide-specific IFN-gamma production relative to the control well was observed; also recorded: able to induce CTLs that showed peptide-specific IFN-gamma production

## IYMRALQIVY (a peptide derived from CDCA1) [SEQ ID NO: 13, CDCA1-derived 10mer peptide, start position 48]
peptide-pulsed C1R-A01 [1]; listed as CDCA1-A01-10-48
  Peptide-specific IFN-gamma production (CTL induction): Peptide-specific IFN-gamma production relative to the control well was observed; also recorded: able to induce CTLs that showed peptide-specific IFN-gamma production
peptide-pulsed C1R-A01 [2]; listed as CDCA1-A01-10-48
  Peptide-specific IFN-gamma production of CTL clones: showed peptide-specific IFN-gamma production

## MMPVNSEVMY (a peptide derived from CDCA1) [SEQ ID NO: 9, CDCA1-derived 10mer peptide, start position 66]
peptide-pulsed C1R-A01 [1]; listed as CDCA1-A01-10-66
  Peptide-specific IFN-gamma production (CTL induction): No IFN-gamma production; also recorded: peptide-specific IFN-gamma production was not observed

## QLVQLYQK (QLEVQLYQK; a peptide derived from CDCA1) [SEQ ID NO: 25, CDCA1-derived 9mer peptide, start position 290]
peptide-pulsed C1R-A01 [1]; listed as CDCA1-A01-9-290
  Peptide-specific IFN-gamma production (CTL induction): Peptide-specific IFN-gamma production relative to the control well was observed; also recorded: able to induce CTLs that showed peptide-specific IFN-gamma production

## SCQLEVQLY (a peptide derived from CDCA1) [SEQ ID NO: 37, CDCA1-derived 9mer peptide, start position 288]
peptide-pulsed C1R-A01 [1]; listed as CDCA1-A01-9-288
  Peptide-specific IFN-gamma production (CTL induction): Peptide-specific IFN-gamma production relative to the control well was observed; also recorded: able to induce CTLs that showed peptide-specific IFN-gamma production

## VYGIRLEHFY (a peptide derived from CDCA1) [SEQ ID NO: 10, CDCA1-derived 10mer peptide, start position 56]
peptide-pulsed C1R-A01 [1]; listed as CDCA1-A01-10-56
  Peptide-specific IFN-gamma production (CTL induction): Peptide-specific IFN-gamma production relative to the control well was observed; also recorded: able to induce CTLs that showed peptide-specific IFN-gamma production
peptide-pulsed C1R-A01 [2]; listed as CDCA1-A01-10-56
  Peptide-specific IFN-gamma production of CTL clones: showed peptide-specific IFN-gamma production

## YMEFLWQY (a peptide derived from CDCA1) [SEQ ID NO: 1, CDCA1-derived 8mer peptide, start position 138]
peptide-pulsed C1R-A01 [1]; listed as CDCA1-A01-8-138
  Peptide-specific IFN-gamma production (CTL induction): Peptide-specific IFN-gamma production relative to the control well was observed; also recorded: able to induce CTLs that showed peptide-specific IFN-gamma production
